{
  "source": "patent US7601716B2",
  "about": "“Pyridopyrazines and derivatives thereof as ALK and c-Met inhibitors” (Cephalon, Inc., priority 2006, dated 2009)",
  "data": [
    {"target": "baculovirus-expressed ALK (Homo sapiens, UniProt Q9UM73)", "sequence (Q9UM73 19-1620)": "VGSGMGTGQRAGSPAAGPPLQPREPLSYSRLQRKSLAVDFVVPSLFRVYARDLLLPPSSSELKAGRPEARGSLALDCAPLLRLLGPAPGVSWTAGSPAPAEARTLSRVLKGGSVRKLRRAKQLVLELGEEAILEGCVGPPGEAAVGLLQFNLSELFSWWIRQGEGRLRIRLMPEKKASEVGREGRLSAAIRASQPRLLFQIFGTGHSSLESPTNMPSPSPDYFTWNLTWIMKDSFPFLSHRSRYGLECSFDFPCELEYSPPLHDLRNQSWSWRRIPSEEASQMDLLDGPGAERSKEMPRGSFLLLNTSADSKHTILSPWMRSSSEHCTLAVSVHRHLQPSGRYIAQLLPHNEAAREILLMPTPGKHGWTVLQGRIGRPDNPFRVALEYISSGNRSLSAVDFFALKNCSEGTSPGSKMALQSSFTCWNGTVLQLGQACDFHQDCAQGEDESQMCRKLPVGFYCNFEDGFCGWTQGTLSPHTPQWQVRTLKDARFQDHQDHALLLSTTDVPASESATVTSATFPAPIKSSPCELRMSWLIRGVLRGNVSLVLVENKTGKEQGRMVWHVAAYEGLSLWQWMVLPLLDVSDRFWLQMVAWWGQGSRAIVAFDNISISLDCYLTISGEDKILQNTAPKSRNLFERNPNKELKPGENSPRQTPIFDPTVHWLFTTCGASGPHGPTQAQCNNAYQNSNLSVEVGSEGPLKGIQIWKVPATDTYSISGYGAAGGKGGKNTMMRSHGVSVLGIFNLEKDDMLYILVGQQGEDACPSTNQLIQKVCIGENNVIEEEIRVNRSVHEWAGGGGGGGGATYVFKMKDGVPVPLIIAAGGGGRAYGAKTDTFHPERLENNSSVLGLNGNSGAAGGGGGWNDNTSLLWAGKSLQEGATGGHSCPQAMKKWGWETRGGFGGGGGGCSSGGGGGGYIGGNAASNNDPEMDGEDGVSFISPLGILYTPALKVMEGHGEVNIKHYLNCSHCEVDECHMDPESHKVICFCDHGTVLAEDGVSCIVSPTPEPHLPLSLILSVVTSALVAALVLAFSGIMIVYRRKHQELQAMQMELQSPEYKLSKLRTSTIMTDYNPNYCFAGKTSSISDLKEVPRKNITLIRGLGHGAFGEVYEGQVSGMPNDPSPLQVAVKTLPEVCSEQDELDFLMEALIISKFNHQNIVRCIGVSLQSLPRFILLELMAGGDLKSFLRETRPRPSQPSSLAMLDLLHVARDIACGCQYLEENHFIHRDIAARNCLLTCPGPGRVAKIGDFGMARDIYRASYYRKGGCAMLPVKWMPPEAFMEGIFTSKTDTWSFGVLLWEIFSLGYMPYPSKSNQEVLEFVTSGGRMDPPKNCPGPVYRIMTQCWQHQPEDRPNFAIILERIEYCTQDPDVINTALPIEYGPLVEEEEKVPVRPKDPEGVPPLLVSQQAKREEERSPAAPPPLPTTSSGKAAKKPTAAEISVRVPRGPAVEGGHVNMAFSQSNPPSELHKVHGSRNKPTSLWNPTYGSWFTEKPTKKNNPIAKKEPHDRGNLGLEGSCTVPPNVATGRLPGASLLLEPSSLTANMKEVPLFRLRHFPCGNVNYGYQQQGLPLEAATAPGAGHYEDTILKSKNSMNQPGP", "experiment": "ALK Kinase Assay (ELISA/TRF, PLC-γ substrate); also: 1 µM ATP (Km level)", "assay_type": "biochemical", "conditions": "read-out: ALK Kinase Inhibition (IC50)", "method_in_brief": "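An ELISA adapted from a trkA format was used: wells carried GST-fused PLC-γ substrate, and enzyme addition (30 ng/ml ALK) started a 15-minute reaction at 37° C.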", "units": {"IC50": "µM"}, "values": [
      {"smiles": "O=C(c1cccc(-c2cnc3c(c2)N(Cc2cc(Cl)ccc2C(F)(F)F)CCN3)c1)N1CCN(Cc2ccc(Cl)cc2)CC1", "note": "[Example 321, [4-(4-Chlorobenzyl)piperazin-1-yl]-(3-{1-[5-Chloro-2-(trifluoromethyl)benzyl]-1,2,3,4-tetrahydropyrido[2,3-b]pyrazin-7-yl}phenyl)methanone]", "IC50": "0.1 to 1"},
      {"smiles": "O=C(NCc1ccc(Cl)cc1)c1cccc(-c2cnc3c(c2)N(Cc2cc(Cl)ccc2C(F)(F)F)CCN3)c1", "note": "[Example 349, N-(4-Chlorobenzyl)-3-{1-[5-Chloro-2-(trifluoromethyl)benzyl]-1,2,3,4-tetrahydropyrido[2,3-b]pyrazin-7-yl}benzamide]", "IC50": "0.1 to 1"},
      {"smiles": "O=C(c1ccc(-c2cnc3c(c2)N(Cc2cc(Cl)ccc2C(F)(F)F)CCN3)cc1)N1CCC(c2c[nH]c3ccccc23)CC1", "note": "[Example 376, (4-{1-[5-Chloro-2-(trifluoromethyl)benzyl]-1,2,3,4-tetrahydropyrido[2,3-b]pyrazin-7-yl}phenyl)-[4-(1H-indol-3-yl)piperidin-1-yl]methanone]", "IC50": "0.1 to 1"},
      {"smiles": "O=C(c1ccc(-c2cnc3c(c2)N(Cc2cc(Cl)ccc2C(F)(F)F)CCN3)cc1)N1CCN(c2cnccn2)CC1", "note": "[Example 406, (4-{1-[5-Chloro-2-(trifluoromethyl)benzyl]-1,2,3,4-tetrahydropyrido[2,3-b]pyrazin-7-yl}phenyl)-(2,3,5,6-tetrahydro[1,2′]bipyrazinyl-4-yl)methanone]", "IC50": "< 0.1"},
      {"smiles": "O=C(c1ccc(-c2cnc3c(c2)N(Cc2cc(Cl)ccc2C(F)(F)F)CCN3)cc1)N1CCC2(CC1)OCc1ccccc12", "note": "[Example 434, {4-[1-(5-Chloro-2-trifluoromethyl-benzyl)-1,2,3,4-tetrahydropyrido[2,3-b]pyrazin-7-yl]-phenyl}-(spiro[isobenzofuran-1(3H), 4′-piperidine]-1-yl)methanone]", "IC50": "0.1 to 1"},
      {"smiles": "O=C(NCc1ccncc1)c1cccc(-c2cnc3c(c2)N(Cc2cc(Cl)ccc2C(F)(F)F)CCN3)c1", "note": "[Example 334, 3-{1-[5-Chloro-2-(trifluoromethyl)benzyl]-1,2,3,4-tetrahydropyrido[2,3-b]pyrazin-7-yl}-N-pyridin-4-ylmethylbenzamide]", "IC50": "< 0.1"},
      {"smiles": "O=C(c1ccc(-c2cnc3c(c2)N(Cc2cc(Cl)ccc2C(F)(F)F)CCN3)cc1)N1CCN(c2ccccc2C(F)(F)F)CC1", "note": "[Example 381, (4-{1-[5-Chloro-2-(trifluoromethyl)benzyl]-1,2,3,4-tetrahydropyrido[2,3-b]pyrazin-7-yl}phenyl)-{4-[2-(trifluoromethyl)phenyl]piperazin-1-yl}methanone]", "IC50": "0.1 to 1"},
      {"smiles": "O=C(c1ccc(-c2cnc3c(c2)N(Cc2cc(Cl)ccc2C(F)(F)F)CCN3)cc1)N1CCCC1c1cccnc1", "note": "(stereo not drawn) [Example 431, (4-{1-[5-Chloro-2-(trifluoromethyl)benzyl]-1,2,3,4-tetrahydropyrido[2,3-b]pyrazin-7-yl}phenyl)-(2-pyridin-3-yl-pyrrolidin-1-yl)methanone]", "IC50": "0.1 to 1"},
      {"smiles": "O=C(c1cccc(-c2cnc3c(c2)N(Cc2cc(Cl)ccc2C(F)(F)F)CCN3)c1)N1CCN(CC2CCCCC2)CC1", "note": "[Example 362, (3-{1-[5-Chloro-2-(trifluoromethyl)benzyl]-1,2,3,4-tetrahydropyrido[2,3-b]pyrazin-7-yl}phenyl)-[4-(cyclohexylmethyl)piperazin-1-yl]methanone]", "IC50": "0.1 to 1"},
      {"smiles": "O=C(NC1CCN(Cc2ccccc2)CC1)c1ccc(-c2cnc3c(c2)N(Cc2cc(Cl)ccc2C(F)(F)F)CCN3)cc1", "note": "[Example 390, N-(1-Benzylpiperidin-4-yl)-4-{1-[5-chloro-2-(trifluoromethyl)benzyl]-1,2,3,4-tetrahydropyrido[2,3-b]pyrazin-7-yl}benzamide]", "IC50": "0.1 to 1"},
      {"smiles": "O=C(c1cccc(-c2cnc3c(c2)N(Cc2cc(Cl)ccc2C(F)(F)F)CCN3)c1)N1CCN(C(=O)C2CCCO2)CC1", "note": "(stereo not drawn) [Example 351, (3-{1-[5-Chloro-2-(trifluoromethyl)benzyl]-1,2,3,4-tetrahydropyrido[2,3-b]pyrazin-7-yl}phenyl)-[4-(tetrahydrofuran-2-carbonyl)piperazin-1-yl]methanone]", "IC50": "0.1 to 1"},
      {"smiles": "O=C(NCc1ccc(OC(F)(F)F)cc1)c1ccc(-c2cnc3c(c2)N(Cc2cc(Cl)ccc2C(F)(F)F)CCN3)cc1", "note": "[Example 395, 4-{1-[5-Chloro-2-(trifluoromethyl)benzyl]-1,2,3,4-tetrahydropyrido[2,3-b]pyrazin-7-yl}-N-[4-(trifluoromethoxy)benzyl]benzamide]", "IC50": "0.1 to 1"},
      {"smiles": "O=C(c1ccccc1)N1CCN(C(=O)c2cccc(-c3cnc4c(c3)N(Cc3cc(Cl)ccc3C(F)(F)F)CCN4)c2)CC1", "note": "[Example 323, (4-Benzoylpiperazin-1-yl)-(3-{1-[5-Chloro-2-(trifluoromethyl)benzyl]-1,2,3,4-tetrahydropyrido[2,3-b]pyrazin-7-yl}phenyl)methanone]", "IC50": "0.1 to 1"},
      {"smiles": "O=C(c1cccc(-c2cnc3c(c2)N(Cc2cc(Cl)ccc2C(F)(F)F)CCN3)c1)N1CCCC1c1cccnc1", "note": "(stereo not drawn) [Example 366, (3-{1-[5-Chloro-2-(trifluoromethyl)benzyl]-1,2,3,4-tetrahydropyrido[2,3-b]pyrazin-7-yl}phenyl)-(2-pyridin-3-ylpyrrolidin-1-yl)methanone]", "IC50": "0.1 to 1"},
      {"smiles": "CC(C)NC(=O)CN1CCN(C(=O)c2ccc(-c3cnc4c(c3)N(Cc3cc(Cl)ccc3C(F)(F)F)CCN4)cc2)CC1", "note": "[Example 402, 2-[4-(4-{1-[5-Chloro-2-(trifluoromethyl)benzyl]-1,2,3,4-tetrahydropyrido[2,3-b]pyrazin-7-yl}benzoyl)piperazin-1-yl]-N-isopropylacetamide]", "IC50": "< 0.1"},
      {"smiles": "O=C(c1cccc(-c2cnc3c(c2)N(Cc2cc(Cl)ccc2C(F)(F)F)CCN3)c1)N1CCC2(CC1)C(=O)NCN2c1ccccc1", "note": "[Example 318, 8-(3-{1-[5-Chloro-2-(trifluoromethyl)benzyl]-1,2,3,4-tetrahydropyrido[2,3-b]pyrazin-7-yl}benzoyl)-1-phenyl-1,3,8-triaza-spiro[4.5]decan-4-one]", "IC50": "0.1 to 1"},
      {"smiles": "O=C(NC1CCN(Cc2ccccc2)CC1)c1cccc(-c2cnc3c(c2)N(Cc2cc(Cl)ccc2C(F)(F)F)CCN3)c1", "note": "[Example 327, N-(1-Benzylpiperidin-4-yl)-3-{1-[5-chloro-2-(trifluoromethyl)benzyl]-1,2,3,4-tetrahydropyrido[2,3-b]pyrazin-7-yl}benzamide]", "IC50": "< 0.1"},
      {"smiles": "O=C(NCCc1ccccc1)c1ccc(-c2cnc3c(c2)N(Cc2cc(Cl)ccc2C(F)(F)F)CCN3)cc1", "note": "[Example 416, 4-{1-[5-Chloro-2-(trifluoromethyl)benzyl]-1,2,3,4-tetrahydropyrido[2,3-b]pyrazin-7-yl}-N-phenethylbenzamide]", "IC50": "0.1 to 1"},
      {"smiles": "COc1ccccc1N1CCN(C(=O)c2cccc(-c3cnc4c(c3)N(Cc3cc(Cl)ccc3C(F)(F)F)CCN4)c2)CC1", "note": "[Example 311, (3-{1-[5-Chloro-2-(trifluoromethyl)benzyl]-1,2,3,4-tetrahydropyrido[2,3-b]pyrazin-7-yl}phenyl)-[4-(2-methoxyphenyl)piperazin-1-yl]methanone]", "IC50": "0.1 to 1"},
      {"smiles": "O=C(c1cccc(-c2cnc3c(c2)N(Cc2cc(Cl)ccc2C(F)(F)F)CCN3)c1)N1CCN(CCc2ccccc2)CC1", "note": "[Example 359, (3-{1-[5-Chloro-2-(trifluoromethyl)benzyl]-1,2,3,4-tetrahydropyrido[2,3-b]pyrazin-7-yl}phenyl)-(4-phenethylpiperazin-1-yl)methanone]", "IC50": "0.1 to 1"},
      {"smiles": "Cc1cc(N2CCN(C(=O)c3cccc(-c4cnc5c(c4)N(Cc4cc(Cl)ccc4C(F)(F)F)CCN5)c3)CC2)c2ccccc2n1", "note": "[Example 337, (3-{1-[5-Chloro-2-(trifluoromethyl)benzyl]-1,2,3,4-tetrahydropyrido[2,3-b]pyrazin-7-yl}phenyl)-[4-(2-methylquinolin-4-yl)piperazin-1-yl]methanone]", "IC50": "0.1 to 1"},
      {"smiles": "O=C(c1cccc(-c2cnc3c(c2)N(Cc2cc(Cl)ccc2C(F)(F)F)CCN3)c1)N1CCC(c2c[nH]c3ccccc23)CC1", "note": "[Example 314, (3-{1-[5-Chloro-2-(trifluoromethyl)benzyl]-1,2,3,4-tetrahydropyrido[2,3-b]pyrazin-7-yl}phenyl)-[4-(1H-indol-3-yl)piperidin-1-yl]methanone]", "IC50": "0.1 to 1"},
      {"smiles": "O=C(c1ccc(-c2cnc3c(c2)N(Cc2cc(Cl)ccc2C(F)(F)F)CCN3)cc1)N1CCC(c2noc3cc(F)ccc23)CC1", "note": "[Example 387, (4-{1-[5-Chloro-2-(trifluoromethyl)benzyl]-1,2,3,4-tetrahydropyrido[2,3-b]pyrazin-7-yl}phenyl)-[4-(6-fluorobenzo[d]isoxazol-3-yl)-piperidin-1-yl]methanone]", "IC50": "0.1 to 1"},
      {"smiles": "O=C(NCc1cccc2ccccc12)c1ccc(-c2cnc3c(c2)N(Cc2cc(Cl)ccc2C(F)(F)F)CCN3)cc1", "note": "[Example 409, 4-{1-[5-Chloro-2-(trifluoromethyl)benzyl]-1,2,3,4-tetrahydropyrido[2,3-b]pyrazin-7-yl}-N-naphthalen-1-ylmethylbenzamide]", "IC50": "1 to 10"},
      {"smiles": "O=C(NCc1cc(C(F)(F)F)cc(C(F)(F)F)c1)c1ccc(-c2cnc3c(c2)N(Cc2cc(Cl)ccc2C(F)(F)F)CCN3)cc1", "note": "[Example 397, N-[3,5-Bis(trifluoromethyl)benzyl]-4-{1-[5-Chloro-2-(trifluoromethyl)benzyl]-1,2,3,4-tetrahydropyrido[2,3-b]pyrazin-7-yl}benzamide]", "IC50": "0.1 to 1"},
      {"smiles": "COCCNC(=O)c1ccc(-c2cnc3c(c2)N(Cc2cc(Cl)ccc2C(F)(F)F)CCN3)cc1", "note": "[Example 404, 4-{1-[5-Chloro-2-(trifluoromethyl)benzyl]-1,2,3,4-tetrahydropyrido[2,3-b]pyrazin-7-yl}-N-(2-methoxyethyl)benzamide]", "IC50": "< 0.1"},
      {"smiles": "O=C(c1ccc(-c2cnc3c(c2)N(Cc2cc(Cl)ccc2C(F)(F)F)CCN3)cc1)N1Cc2ccccc2C1", "note": "[Example 433, (4-{1-[5-Chloro-2-(trifluoromethyl)benzyl]-1,2,3,4-tetrahydropyrido[2,3-b]pyrazin-7-yl}phenyl)-(1,3-dihydroisoindol-2-yl)methanone]", "IC50": "0.1 to 1"}
    ]}
  ]
}
